Tests used:
[1] = tested on: STAT1/3 through TYK2/JAK1; experiment: IFNa induced STAT phosphorylation in HEK293 cells (SIE-bla reporter gene); format: cell-based; details: Homo sapiens, HEK293; HEK293T-sie-bla cells, IFNa at EC80, 4 hours; read-out: Inhibition of IFNa induced STAT phosphorylation HEK293 cells IC50
Procedure, shortened: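 Read-out was FRET from a β-lactamase reporter under a SIE promoter in HEK293T cells, with substrate added after a 4 h, 37°C co-incubation of compound and EC80 IFNa and left overnight in the dark. Compounds ran as 10-point 1/5 dilutions at 0.1% final DMSO; four-parameter log fit gave IC50.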

[2] = molecular target: T1, TYK2 (JH2domain-pseudokinase) (Homo sapiens, UniProt P29597); experiment: TYK2 JH2 domain binding assay (KINOMEscan)
T1 construct: TYK2 (JH2domain-pseudokinase)-tagged T7 phage strains were prepared in an E. coli host derived from the BL21 strain; made in house; host or cells: E. coli BL21-derived host (T7 phage) or HEK-293 cells
T1 sequence (P29597 589-875 limits assumed): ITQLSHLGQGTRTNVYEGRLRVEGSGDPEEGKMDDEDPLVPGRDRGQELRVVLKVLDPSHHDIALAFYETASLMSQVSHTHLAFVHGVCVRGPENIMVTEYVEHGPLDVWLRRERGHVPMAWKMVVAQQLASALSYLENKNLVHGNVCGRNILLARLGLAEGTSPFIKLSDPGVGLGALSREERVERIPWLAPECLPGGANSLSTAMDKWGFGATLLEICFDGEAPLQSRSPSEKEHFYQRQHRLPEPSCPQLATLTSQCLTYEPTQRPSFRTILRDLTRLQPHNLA
Procedure, shortened: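 Kd values come from nonlinear least-squares fits of 11-point 3-fold dilutions (mostly 30,000 nM top, lowered when Kd fell below 0.5 nM). Test compound competed with bead-bound biotinylated ligand for qPCR-tagged TYK2 pseudokinase (JH2) domain, shaken 1 h at room temperature, with about 1% final DMSO.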

| Compound | IC50 [1] | Kd [2] |
| --- | --- | --- |
| COc1cc(C(=O)N2CCCC2)ccc1Nc1cc(Nc2cc(C)nc(C)n2)ncn1 [Example 78, [4-[[6-[(2,6-dimethylpyrimidin-4-yl)amino]pyrimidin-4-yl]amino]-3-methoxy-phenyl]-pyrrolidin-1-yl-methanone] | > 1000 nM | 1 to 10 nM |
| COc1cc(-c2ncc(F)cn2)ccc1Nc1cc(Nc2cc(C)nc(C)n2)ncn1 [Example 81, N4-(2,6-dimethylpyrimidin-4-yl)-N6-[4-(5-fluoropyrimidin-2-yl)-2-methoxyphenyl]pyrimidine-4,6-diamine] | > 1000 nM | > 10 nM |
| COc1c(Nc2cc(Nc3cc(C)nc(C)n3)ncn2)ccc(-c2ncn(C)n2)c1C [Example 83, N6-(2,6-dimethylpyrimidin-4-yl)-N4-[2-methoxy-3-methyl-4-(1-methyl-1,2,4-triazol-3-yl)phenyl]pyrimidine-4,6-diamine] | > 1000 nM | 1 to 10 nM |
| Cc1cc(Nc2cc(Nc3ncc(-c4cc(C(F)(F)F)nn4C)cc3N(C)S(C)(=O)=O)ncn2)nc(C)n1 [Example 87, N-[2-[[6-[(2,6-dimethylpyrimidin-4-yl)amino]pyrimidin-4-yl]amino]-5-[2-methyl-5-(trifluoromethyl)pyrazol-3-yl]-3-pyridyl]-N-methyl-methanesulfonamide] | > 1000 nM | 0.2 to 1 nM |
| Cc1cc(Nc2cc(Nc3ccc(-c4cn[nH]c4C)cc3N(C)S(C)(=O)=O)ncn2)nc(C)n1 [Example 89, N-[2-[[6-[(2,6-dimethylpyrimidin-4-yl)amino]pyrimidin-4-yl]amino]-5-(5-methyl-1H-pyrazol-4-yl)phenyl]-N-methyl-methanesulfonamide] | 10 to 100 nM | < 0.2 nM |
| COc1cc(-c2cn(C)cn2)ccc1Nc1cc(Nc2cc(C)nc(C)n2)ncn1 [Example 90, N4-(2,6-dimethylpyrimidin-4-yl)-N6-[2-methoxy-4-(1-methylimidazol-4-yl)phenyl]pyrimidine-4,6-diamine] | > 1000 nM | 1 to 10 nM |
| COc1cc(-c2nccn2C)ccc1Nc1cc(Nc2cc(C)nc(C)n2)ncn1 [Example 91, N4-(2,6-dimethylpyrimidin-4-yl)-N6-[2-methoxy-4-(1-methylimidazol-2-yl)phenyl]pyrimidine-4,6-diamine] | 100 to 1000 nM | 1 to 10 nM |

Now from value to molecule:

| IC50 [1] | Kd [2] | Compound |
| --- | --- | --- |
| 10 to 100 nM | < 0.2 nM | Cc1cc(Nc2cc(Nc3cccc(F)c3N(C)S(C)(=O)=O)ncn2)nc(C)n1 [Example 76, N-[2-[[6-[(2,6-dimethylpyrimidin-4-yl)amino]pyrimidin-4-yl]amino]-6-fluorophenyl]-N-methylmethanesulfonamide] |
| 10 to 100 nM | < 0.2 nM | Cc1cc(Nc2cc(Nc3ccc(C(=O)N(C)C)cc3N(C)S(C)(=O)=O)ncn2)nc(C)n1 [Example 77, 4-[[6-[(2,6-dimethylpyrimidin-4-yl)amino]pyrimidin-4-yl]amino]-N,N-dimethyl-3-[methyl(methylsulfonyl)amino]benzamide] |
| 10 to 100 nM | < 0.2 nM | COc1c(Nc2cc(Nc3cc(C)nc(C)n3)ncn2)ccc(-c2cnn(C)c2C)c1C [Example 84, N4-[4-(1,5-dimethylpyrazol-4-yl)-2-methoxy-3-methyl-phenyl]-N6-(2,6-dimethylpyrimidin-4-yl)pyrimidine-4,6-diamine] |
| 10 to 100 nM | 1 to 10 nM | COc1cc(-c2ncn(C)n2)ccc1Nc1cc(Nc2cc(C)nc(C)n2)ncn1 [Example 85, N6-(2,6-dimethylpyrimidin-4-yl)-N4-[2-methoxy-4-(1-methyl-1,2,4-triazol-3-yl)phenyl]pyrimidine-4,6-diamine] |
| 10 to 100 nM | < 0.2 nM | Cc1cc(Nc2cc(Nc3ncc(-c4c(C)nn(C)c4C)cc3N(C)S(C)(=O)=O)ncn2)nc(C)n1 [Example 88, N-[2-[[6-[(2,6-dimethylpyrimidin-4-yl)amino]pyrimidin-4-yl]amino]-5-(1,3,5-trimethylpyrazol-4-yl)-3-pyridyl]-N-methyl-methanesulfonamide] |
